Experimental data taken from patent publication US6410790B1, “3-amin3-arylpropan-1-ol compounds, their preparation and use” (priority 1999, dated 2002).

Assays:
NA transporter = target: T1, NA transporter (Rattus norvegicus, UniProt Q63380); test: synaptosomal noradrenaline uptake inhibition (NA uptake inhibition); type: biochemical; settings: for inhibition at 1 µM: read-out: NA Uptake Inhibition at 1 μM, 1 μM in the assay, synaptosomes from rat hypothalamus; for NA Uptake Inhibition at 1 μM: 1 μM in the assay, synaptosomes from rat hypothalamus
T1 construct: synaptosomes are isolated fresh from rat brains; from tissue; host or cells: rat hypothalamus synaptosomes (P2 fraction)
T1 sequence (Q63380 1-617): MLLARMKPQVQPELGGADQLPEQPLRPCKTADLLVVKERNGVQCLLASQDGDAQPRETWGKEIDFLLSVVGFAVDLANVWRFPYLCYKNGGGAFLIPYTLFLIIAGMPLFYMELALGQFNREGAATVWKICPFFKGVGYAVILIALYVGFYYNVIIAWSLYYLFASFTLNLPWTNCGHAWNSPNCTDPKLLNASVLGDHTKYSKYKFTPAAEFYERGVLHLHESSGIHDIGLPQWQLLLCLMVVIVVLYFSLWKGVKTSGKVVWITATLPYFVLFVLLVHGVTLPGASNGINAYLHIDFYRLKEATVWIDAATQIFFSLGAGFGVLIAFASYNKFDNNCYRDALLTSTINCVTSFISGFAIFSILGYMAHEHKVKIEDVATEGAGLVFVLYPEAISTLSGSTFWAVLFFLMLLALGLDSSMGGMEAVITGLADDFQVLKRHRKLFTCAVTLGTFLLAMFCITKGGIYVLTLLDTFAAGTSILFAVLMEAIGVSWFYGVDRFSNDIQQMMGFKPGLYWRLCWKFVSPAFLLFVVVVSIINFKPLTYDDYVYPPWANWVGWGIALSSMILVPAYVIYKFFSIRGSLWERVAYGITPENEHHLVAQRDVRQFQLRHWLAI
Protocol: In order to carry out these in vitro studies, synaptosomes are isolated fresh from rat brains. In each case a so-called “P2” fraction is used, which is prepared according to the protocol of Gray and Whittaker (E. G. Gray and V. P. Whittaker (1962) J. Anat. 76, 79-88).
(in each case N=4, i.e. mean values±SEM from 4 independent series of experiments that were carried out in the form of triple parallel experiments).
(§1) For this purpose IC50 values are obtained, which can be converted to inhibitor constants (Ki) according to the “Cheng-Prusoff equation” (Y. C. Clieng and W. H. Prusoff (1973) Biochem. Pharmacol. 22, 3099-3108). The IC50 values were obtained by means of the computer program “Figure P” (version 6.0, Biosoft, Cambridge, England). Km values were calculated according to Lineweaver and Burk (H. Lineweaver and D. Burk (1934) J. Am. Chem. Soc. 56, 658-666). The “Ligand” computer program (version 4, Biosoft, England) was used to obtain Ken values.

[1] = system: binding site 2 of the sodium channel; test: BTX binding, sodium channel; settings: 10 μM, percentage inhibition, [3H]-batrachotoxin A20 α-benzoate 10 nM, rat cerebral cortex synaptosomes
Protocol: Binding Investigations in the Sodium Channel
Binding Site 2 (BTX Binding)
The binding site 2 of the sodium channel is the so-called batrachotoxin (BTX) binding site. [^3H]-batrachlotoxin A20 α-benzoate (10 nM in the assay) was used as ligand. These ion channel particles (synaptosomes) were concentrated from rat cerebral cortex according to the procedure of Gray and Whittaker (E. G. Gray and V. P. Whittaker (1962) J. Anat. 76, 79-88). The radioactivity that is measured in the presence of veratridine (0.3 mM in the assay) is defined as non-specific binding. The material was incubated at 37° C. for 120 minutes. The assay conditions are carried out according to the protocol published by Pauwels, Leysen and Laduron (P. J. Pauwels, J. E. Leysen and P. M. Laduron (1986) Eur. J. Pharmacol. 124, 291-298).
(N=3, i.e. mean values±SEM from 3 independent series of experiments that were carried out in the form of triple parallel experiments).
as §1

[2] = system: benzothiazepine binding site of the L-type calcium channel; test: Diltiazem binding, L calcium channel; design: species or system rat; settings: 10 μM, percentage inhibition, [3H]-cis-(+)-diltiazem 5 nM, rat cerebral cortex membranes
Protocol: Binding Investigations in the L Calcium Channel
Benzothiazepine Binding Site (Diltiazem Binding)
The biological membrane material was isolated from the rat cerebral cortex. [^3H]-cis-(+)-diltiazem (5 nM in the assay) was used as ligand. The material was incubated for 20 minutes at 25° C. The radioactivity that is measured in the presence of (±)-diltiazem (10^−6 M in the assay) is defined as non-specific binding. After completion of incubation the non-bound fraction of the radioactive ligand is separated by means of a filtration process using Whatman Glasfiber GF/B membranes. The membranes are washed and the radioactivity is then measured using a β-counter. The method is based on the details published by Schoemaker and Langer (H. Schoemaker and S. Z. Langer (1985) Eur. J. Pharmacol. 111, 273-277).
as §1

[3] = system: phenylquinone-induced writhing reaction; test: phenylquinone-induced writhing test in mice; type: in vivo; settings: male NMRI mice, phenylquinone i.p. 10 minutes later; for inhibition in vivo at 10 mg/kg: Mus musculus, iv, 10 min, 10 mg/kg intravenously
Protocol: Analgesic Effect in the Writhing Test in Mice
The analgesic effect was investigated in the phenylquinone-induced writhing test in mice (as modified by I. C. Hendershot and J. Forsaith (1959) J. Pharmacol. Exp. Ther. 125, 237-240). Male NMRI mice weighing 25 to 30 g were used for the test. Groups of 10 animals each received by intraperitoineal application, for each substance dose, 0.3 ml/mouse of a 0.02% aqueous solution of phenylquinone (phenylbenzoquinone, Sigma Company, Deisenhofen; solution prepared with addition of 5% of ethanol and kept in a water bath at 45° C.) 10 minutes after intravenous administration of the test substances. The animals were placed individually in observation cages. The number of pain-induced stretching movements (so-called writhing reactions=straightening of the body together with stretching of the rear extremities) was measured by means of a push-button counter 5 to 20 minutes after administration of the phenylquinone. Animals that had received only physiological saline solution served as controls. All substances were tested in the standard dose of 10 mg/kg. The percentage inhibition (% inhibition) of the writhing reaction produced by a substance was calculated according to the following formula: [formula]

SMILES	inhibition at 1 µM (NA transporter) [%]	BTX Binding at 10 μM [1] [%]	Diltiazem Binding at 10 μM [2] [%]	inhibition in vivo at 10 mg/kg [3] [%]	NA Uptake Inhibition at 1 μM (NA transporter) [%]	% Inhibition of the writhing reaction at 10 mg/kg intravenously [3] [%]
CN(C)C(c1ccc(F)cc1)C1CCCCC1(O)Cc1ccccc1.Cl (centres unmarked) [Example 41, 1-benzyl-2-[dimethylamino-(4-fluorophenyl)methyl]cyclohexanol, hydrochloride]	100	94	87	88	–	–
CN(C)C(c1cccc(Cl)c1)C1CCCCC1(O)c1ccccc1.Cl (centres unmarked) [Example 42]	–	89	50	–	82	76
CN(C)CC1CCCCC1(O)c1ccc(Cl)cc1Cl.Cl (centres unmarked) [Example 43, 1-(2,4-dichlorophenyl)-2-(3-dimethylaminomethyl)-1-cyclohexanol, hydrochloride]	–	94	73	–	14	80
CN(C)C(c1cccc(Cl)c1)C1CCCCC1(O)Cc1ccccc1.Cl (centres unmarked) [Example 44, 1-benzyl-2-[(3-chlorophenyl)dimethylaminomethyl]cyclohexanol, hydrochloride]	99	95	71	100	–	–
CN(C)C(c1ccccc1Cl)C1CCCCC1(O)Cc1ccccc1.Cl (centres unmarked) [Example 45, 1-benzyl-2-[(2-chlorophenyl)dimethylaminomethyl]cyclohexanol, hydrochloride]	89	96	67	82	–	–
CN(C)C(c1ccc(Cl)c(Cl)c1)C1CCCCC1(O)Cc1ccc(C(C)(C)C)cc1.Cl (centres unmarked) [Example 46, 1-(4-tert.-butylbenzyl)-2-[(3,4-dichlorophenyl)dimethylaminomethyl]cyclohexanol, hydrochloride]	35	96	93	68	–	–
CN(C)C(c1ccc(F)cc1)C1CCCCC1(O)Cc1cccc(C(F)(F)F)c1.Cl (centres unmarked) [Example 47, 2-[dimethylamino-(4-fluorophenyl)methyl]-1-(3-trifluoromethylbenzyl)cyclohexanol, hydrochloride]	100	100	84	89	–	–
CN(C)C(c1ccccc1)C1CCCCC1(O)C1CCCCC1.Cl (centres unmarked) [Example 48, 2-(dimethylaminophenylmethyl)bicyclohexyl-1-ol, hydrochloride]	29	96	86	94	–	–
COc1ccc(CC2(O)CCCCC2C(c2ccccc2)N(C)C)cc1.Cl (centres unmarked) [Example 49, 2-(dimethylaminophenylmethyl)-1-(4-methoxybenzyl)cyclohexanol, hydrochloride]	100	90	93	100	–	–
CN(C)C(c1ccccc1)C1CCCCC1(O)Cc1ccc(F)cc1F.Cl (centres unmarked) [Example 50, 1-(2,4-difluorobenzyl)-2-(dimethylaminophenylmethyl)cyclohexanol, hydrochloride]	100	95	93	85	–	–
CN(C)C(c1cccc(Cl)c1)C1CCCCC1(O)Cc1ccc(C(C)(C)C)cc1.Cl (centres unmarked) [Example 51, 1-(4-tert.-butylbenzyl)-2-[(3-chlorophenyl)dimethylaminomethyl]cyclohexanol, hydrochloride]	10	99	77	99	–	–
CN(C)C(c1cccc(Oc2ccccc2)c1)C1CCCCC1(O)CCc1ccccc1.Cl (centres unmarked) [Example 52, 2-[dimethylamino-(3-phenoxyphenyl)methyl]-1-phenethylcyclohexanol, hydrochloride]	38	99	98	70	–	–
CN(C)C(c1cccc(Oc2ccccc2)c1)C1CCCCC1(O)Cc1cccc(C(F)(F)F)c1.Cl (centres unmarked) [Example 53, 2-[dimethylamino-(3-phenoxyphenyl)methyl]-1-(3-trifluoromethylbenzyl)cyclohexanol, hydrochloride]	49	97	92	90	–	–
CN(C)C(c1ccccc1)C1CCCCC1(O)Cc1cc(F)ccc1F.Cl (centres unmarked) [Example 54, 1-(2,5-difluorobenzyl)-2-(dimethylaminophenylmethyl)cyclohexanol, hydrochloride]	96	98	76	98	–	–
CN(C)C(c1ccccc1)C1CCCCC1(O)Cc1ccc(F)c(F)c1.Cl (centres unmarked) [Example 55, 1-(3,4-difluorobenzyl)-2-(dimethylaminophenylmethyl)cyclohexanol, hydrochloride]	38	94	76	92	–	–
CN(C)C(c1ccccc1)C1CCCCC1(O)Cc1c(F)cccc1Cl.Cl (centres unmarked) [Example 56, 1-(2-chloro-6-fluorobenzyl)-2-(dimethylaminophenylmethyl)cyclohexanol, hydrochloride]	92	99	88	94	–	–
CN(C)C(c1ccccc1)C1CCCCC1(O)Cc1cccc(F)c1F.Cl (centres unmarked) [Example 57, 1-(2,3-difluorobenzyl)-2-(dimethylaminophenylmethyl)cyclohexanol, hydrochloride]	99	97	83	84	–	–
CN(C)C(c1ccc(Cl)cc1)C1CCCCC1(O)Cc1ccccc1.Cl (centres unmarked) [Example 58, 1-benzyl-2-[(4-chlorophenyl)dimethylaminomethyl]cyclohexanol, hydrochloride]	0	100	80	98	–	–
CCC(O)(CCc1ccccc1)C(C)C(c1ccccc1)N(C)C.Cl (centres unmarked) [Example 59, 1-dimethylamino-3-ethyl-2-methyl-1,5-diphenylpentan-3-ol, hydrochloride]	26	86	64	59	–	–
CN(C)C(c1ccccc1Cl)C1CCCCC1(O)Cc1ccccc1Cl.Cl (centres unmarked) [Example 60, 1-(2-chlorobenzyl)-2-[(2-chlorophenyl)dimethylaminomethyl]cyclohexanol, hydrochloride]	56	95	79	63	–	–
